# “And” between values parts separate entries of the source, which are not always exact repeats. Equal values may be shown once. Read-outs that look alike come from different tables or passages of the source.
# Legend:
# [1] = biological target: T1, mGluR2 (Mus musculus, UniProt Q14BI2); assay: Functional calcium imaging, SNAP-mGluR2 (no FLAG-tag) with chimeric G protein Gqo5 in HEK293T cells; assay type: cell-based; design: Full length mGluR2 construct with an amber codon (TAG) mutation of amino acid A548 (azi-CRD) or N-terminal SNAP-tag (SNAP-mGluR2); host or cells: HEK293T; details: for Intracellular Ca2+ response, Mean / Intracellular Ca2+ response: normalized to 1mM glutamate; for Intracellular Ca2+ response: single experiments
# T1 sequence (Q14BI2 19-872): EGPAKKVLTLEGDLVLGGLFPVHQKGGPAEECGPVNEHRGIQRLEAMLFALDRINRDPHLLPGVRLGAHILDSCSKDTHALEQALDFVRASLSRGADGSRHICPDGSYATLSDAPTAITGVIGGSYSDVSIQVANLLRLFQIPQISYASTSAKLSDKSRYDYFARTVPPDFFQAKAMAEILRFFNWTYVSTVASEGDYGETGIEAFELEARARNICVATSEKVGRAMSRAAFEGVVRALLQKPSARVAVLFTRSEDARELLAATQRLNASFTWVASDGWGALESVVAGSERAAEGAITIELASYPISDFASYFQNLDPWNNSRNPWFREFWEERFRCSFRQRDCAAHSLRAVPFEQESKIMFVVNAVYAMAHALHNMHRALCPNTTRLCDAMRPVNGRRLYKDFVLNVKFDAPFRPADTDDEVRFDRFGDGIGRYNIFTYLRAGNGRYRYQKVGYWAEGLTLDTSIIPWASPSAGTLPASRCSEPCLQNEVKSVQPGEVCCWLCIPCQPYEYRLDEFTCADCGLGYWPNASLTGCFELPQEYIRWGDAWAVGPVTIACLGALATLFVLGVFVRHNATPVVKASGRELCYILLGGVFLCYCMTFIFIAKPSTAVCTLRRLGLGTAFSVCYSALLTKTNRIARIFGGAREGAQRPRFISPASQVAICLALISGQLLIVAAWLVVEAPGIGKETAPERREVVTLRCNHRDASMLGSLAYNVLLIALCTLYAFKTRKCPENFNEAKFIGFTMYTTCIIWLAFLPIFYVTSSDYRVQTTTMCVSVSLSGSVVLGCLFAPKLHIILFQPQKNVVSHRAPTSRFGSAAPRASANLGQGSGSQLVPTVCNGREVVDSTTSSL
# [2] = biological target: mGluR2 (Mus musculus, UniProt Q14BI2, A548F); assay: Live-cell FRET, azi-CRD (cysteine-rich domain) sensor in HEK293T cells; details: for Normalized FRET response, Mean (azi-CRD agonist DRC): maximal responses normalized to 1mM glutamate
# Chain of mGluR2 (Mus musculus, UniProt Q14BI2, A548F) (Q14BI2 19-872 A548F): as the sequence (Q14BI2 19-872) above, with A530F counted along it
# [3] = biological target: mGluR2 (Mus musculus, UniProt Q14BI2, INS715F); assay: Live-cell FRET, azi-ECL2 (7TM domain, extracellular loop 2) sensor in HEK293T cells;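 also: Cy3/Cy5 click-labeled sensor, whole-membrane ROIs per cell, apparent FRET after bleed-through correction, ΔFRET as treatment minus pre-treatment signal, at room temperature, at least three biological replicates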
# Chain of mGluR2 (Mus musculus, UniProt Q14BI2, INS715F) (Q14BI2 with tags, fused parts or gaps INS715F): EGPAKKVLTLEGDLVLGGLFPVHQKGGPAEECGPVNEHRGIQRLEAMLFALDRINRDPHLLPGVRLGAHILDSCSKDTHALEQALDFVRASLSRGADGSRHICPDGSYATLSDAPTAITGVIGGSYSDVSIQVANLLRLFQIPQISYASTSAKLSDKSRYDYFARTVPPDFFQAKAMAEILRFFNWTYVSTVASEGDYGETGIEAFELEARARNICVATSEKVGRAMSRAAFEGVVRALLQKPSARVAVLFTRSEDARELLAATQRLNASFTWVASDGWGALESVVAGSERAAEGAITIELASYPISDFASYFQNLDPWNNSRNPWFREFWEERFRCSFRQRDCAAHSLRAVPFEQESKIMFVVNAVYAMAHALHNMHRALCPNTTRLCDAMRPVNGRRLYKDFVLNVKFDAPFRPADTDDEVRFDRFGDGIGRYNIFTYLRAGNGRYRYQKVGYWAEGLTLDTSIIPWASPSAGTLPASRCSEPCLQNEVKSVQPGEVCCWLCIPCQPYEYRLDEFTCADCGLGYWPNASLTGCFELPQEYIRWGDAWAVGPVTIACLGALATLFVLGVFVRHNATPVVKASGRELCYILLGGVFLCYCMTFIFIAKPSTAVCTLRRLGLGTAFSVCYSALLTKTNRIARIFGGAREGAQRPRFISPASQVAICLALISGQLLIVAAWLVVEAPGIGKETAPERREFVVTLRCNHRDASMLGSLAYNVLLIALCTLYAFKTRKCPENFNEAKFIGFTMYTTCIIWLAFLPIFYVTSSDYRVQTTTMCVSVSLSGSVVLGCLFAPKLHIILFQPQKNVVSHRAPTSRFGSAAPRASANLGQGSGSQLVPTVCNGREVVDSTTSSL
# [4] = biological target: T1, mGluR2; assay: Live-cell FRET, SNAP-m2 (VFT domain) inter-subunit sensor in HEK293T cells; details: for Normalized FRET response, Mean (SNAP-m2 agonist DRC): maximal responses normalized to 1mM glutamate;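 as to all read-outs here: apparent FRET efficiency from whole-membrane ROIs of single cells, corrected for donor bleed-through and background, ΔFRET as treatment minus pretreatment signal, recorded at room temperature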
smiles,measurement,setting,value
N[C@H](C(=O)O)C1[C@@H](C(=O)O)[C@@H]1C(=O)O (some centres unmarked) [DCG-IV],"Normalized Max Intracellular Ca2+ Response, individual experiments","[1]; 100 μM DCG-IV, 10 μM LY379268, 300 μM APDC, normalized to 1 mM glutamate, single replicate",0.684 and 0.6918 and 0.7087
same,"Normalized Max Intracellular Ca2+ Response, mean","[1]; 1 mM Glu, 100 μM DCG-IV, 10 μM LY379268, 300 μM APDC, normalized to 1 mM glutamate",0.6948
same,efficacy relative to glutamate efficacy,[1]; functional calcium imaging assay,69%
same,"Intracellular Ca2+ response, Mean",[1]; log[agonist] (M) -4,0.6948
same,Intracellular Ca2+ response,[1]; log[agonist] (M) -4,0.6948
same,"Intracellular Ca2+ response, Mean",[1]; log[agonist] (M) -4.52288,0.7042
same,Intracellular Ca2+ response,[1]; log[agonist] (M) -4.52288,0.7332 and 0.6724 and 0.7069
same,"Intracellular Ca2+ response, Mean",[1]; log[agonist] (M) -5,0.632
same,Intracellular Ca2+ response,[1]; log[agonist] (M) -5,0.631 and 0.6318 and 0.6332
same,"Intracellular Ca2+ response, Mean",[1]; log[agonist] (M) -5.39794,0.5754
same,Intracellular Ca2+ response,[1]; log[agonist] (M) -5.39794,0.5417 and 0.5882 and 0.5962
same,"Intracellular Ca2+ response, Mean",[1]; log[agonist] (M) -5.82391,0.3655
same,Intracellular Ca2+ response,[1]; log[agonist] (M) -5.82391,0.2777 and 0.362 and 0.4567
same,"Intracellular Ca2+ response, Mean",[1]; log[agonist] (M) -6,0.3093
same,Intracellular Ca2+ response,[1]; log[agonist] (M) -6,0.2196 and 0.3072 and 0.4011
same,"Intracellular Ca2+ response, Mean",[1]; log[agonist] (M) -6.52288,0.06286
same,"Intracellular Ca2+ response, Mean",[1]; log[agonist] (M) -7,0
same,Intracellular Ca2+ response,[1]; log[agonist] (M) -7,0
same,"Intracellular Ca2+ response, Mean",[1]; log[agonist] (M) -8,0
same,Intracellular Ca2+ response,[1]; log[agonist] (M) -8,0
same,efficacy relative to glutamate efficacy,[2]; CRD sensor,69%
same,Hill slope,"[2]; azi-CRD sensor, orthosteric agonist alone",0.94
same,Live-cell FRET max response normalized to 1mM glutamate,"[2]; azi-CRD sensor, DCG-IV, individual values (N=19)",0.7559 and 0.727 and 0.7189 and 0.7035 and 0.632 and 0.6169 and 0.7378 and 0.6793 and 0.6073 and 0.6642 and 0.7117 and 0.7276 and 0.6566 and 0.7993 and 0.7099 and 0.6625 and 0.714 and 0.6368 and 0.7062
same,Mean max response (normalized max ΔFRET),"[2]; azi-CRD, agonist alone (1 mM glutamate, 100 μM DCG-IV, 20 μM LY379268, 100 μM APDC), normalized to 1 mM glutamate",0.69
same,Normalized Max ΔFRET,"[2]; azi-CRD, 100μM agonist, individual cells, normalized to 1mM glutamate",66.2522 and 61.6858 and 73.7778 and 67.9245 and 60.7306 and 66.4234 and 71.1688 and 72.7619 and 65.6646 and 79.932 and 70.9877 and 71.4032 and 63.6793 and 70.615 and 75.5857 and 72.6994 and 71.8894 and 70.347 and 63.2035
same,"Normalized Max ΔFRET, Mean","[2]; azi-CRD, 100μM agonist, mean of cells, normalized to 1mM glutamate",69.3017
same,"Normalized FRET response, Mean (azi-CRD agonist DRC)",[2]; log[ligand] (M) -4,0.693
same,"Normalized FRET response, Mean (azi-CRD agonist DRC)",[2]; log[ligand] (M) -4.1549,0.638
same,"Normalized FRET response, Mean (azi-CRD agonist DRC)",[2]; log[ligand] (M) -4.52288,0.594
same,"Normalized FRET response, Mean (azi-CRD agonist DRC)",[2]; log[ligand] (M) -5,0.6438
same,"Normalized FRET response, Mean (azi-CRD agonist DRC)",[2]; log[ligand] (M) -5.39794,0.5492
same,"Normalized FRET response, Mean (azi-CRD agonist DRC)",[2]; log[ligand] (M) -5.82391,0.4312
same,"Normalized FRET response, Mean (azi-CRD agonist DRC)",[2]; log[ligand] (M) -6,0.3274
same,"Normalized FRET response, Mean (azi-CRD agonist DRC)",[2]; log[ligand] (M) -6.52288,0.164
same,"Normalized FRET response, Mean (azi-CRD agonist DRC)",[2]; log[ligand] (M) -7,0.06087
same,"Normalized FRET response, Mean (azi-CRD agonist DRC)",[2]; log[ligand] (M) -8,0
same,EC50,"[2]; read-out: Live-cell FRET titration EC50, azi-CRD, agonist alone, individual experiments",1530 nM and 1470 nM and 783 nM and 580 nM and 528 nM and 523 nM and 890 nM and 1360 nM and 1600 nM and 2080 nM
same,EC50,"[2]; read-out: Mean half-maximum effective concentration (EC50), azi-CRD sensor, orthosteric agonist alone",1100 nM
same,efficacy relative to glutamate efficacy,[3]; ECL2 sensor,64%
same,Mean max response (normalized max ΔFRET),"[3]; azi-ECL2, agonist alone (1 mM glutamate, 100 μM DCG-IV, 20 μM LY379268, 100 μM APDC), normalized to 1 mM glutamate",0.64
same,"Normalized ΔFRET response, Mean (agonist DRC)","[3]; azi-ECL2, log[agonist] (M) -4, normalized to 1 mM glutamate",0.6388
same,"Normalized ΔFRET response, Mean (agonist DRC)","[3]; azi-ECL2, log[agonist] (M) -4.52288, normalized to 1 mM glutamate",0.6117
same,"Normalized ΔFRET response, Mean (agonist DRC)","[3]; azi-ECL2, log[agonist] (M) -5, normalized to 1 mM glutamate",0.5883
same,"Normalized ΔFRET response, Mean (agonist DRC)","[3]; azi-ECL2, log[agonist] (M) -5.39794, normalized to 1 mM glutamate",0.5288
same,"Normalized ΔFRET response, Mean (agonist DRC)","[3]; azi-ECL2, log[agonist] (M) -5.82391, normalized to 1 mM glutamate",0.4325
same,"Normalized ΔFRET response, Mean (agonist DRC)","[3]; azi-ECL2, log[agonist] (M) -6.09691, normalized to 1 mM glutamate",0.3472
same,"Normalized ΔFRET response, Mean (agonist DRC)","[3]; azi-ECL2, log[agonist] (M) -6.52288, normalized to 1 mM glutamate",0.1978
same,"Normalized ΔFRET response, Mean (agonist DRC)","[3]; azi-ECL2, log[agonist] (M) -7, normalized to 1 mM glutamate",0.04555
same,"Normalized ΔFRET response, Mean (agonist DRC)","[3]; azi-ECL2, log[agonist] (M) -7.30103, normalized to 1 mM glutamate",0.01237
same,"Normalized ΔFRET response, Mean (agonist DRC)","[3]; azi-ECL2, log[agonist] (M) -7.69897, normalized to 1 mM glutamate",0
same,Normalized Max ΔFRET,"[3]; azi-ECL2, 100μM agonist, individual cells, normalized to 1mM glutamate",75.6239 and 62.1009 and 89.9691 and 84.6273 and 55.3373 and 55.3387 and 55.3355 and 62.696 and 49.3687 and 57.2855 and 56.6756 and 63.6013 and 56.6982 and 53.3737 and 53.7969 and 61.9848 and 59.9837 and 58.1516 and 63.6225 and 66.6797 and 61.402 and 83.697 and 67.4032 and 68.3214 and 74.0066
same,"Normalized Max ΔFRET, Mean","[3]; azi-ECL2, 100μM agonist, mean of cells, normalized to 1mM glutamate",63.8832
same,Hill slope,"[3]; azi-ECL2 sensor, orthosteric agonist alone",1.05
same,Live-cell FRET max response normalized to 1mM glutamate,"[3]; azi-ECL2 sensor, DCG-IV, individual values (N=25)",0.614 and 0.837 and 0.674 and 0.6832 and 0.7401 and 0.621 and 0.8997 and 0.8463 and 0.5534 (3×) and 0.627 and 0.4937 and 0.5728 and 0.5668 and 0.567 and 0.5337 and 0.538 and 0.6199 and 0.5998 and 0.5815 and 0.7562 and 0.636 and 0.6362 and 0.6668
same,EC50,"[3]; read-out: EC50, live-cell FRET titration, azi-ECL2 sensor, DCG-IV, individual cell values (N=24)",407 nM and 1580 nM and 2080 nM and 2050 nM and 1660 nM and 1520 nM and 1840 nM and 2020 nM and 1160 nM and 2070 nM and 563 nM and 325 nM and 399 nM and 405 nM and 280 nM and 445 nM and 366 nM and 629 nM and 300 nM and 459 nM and 417 nM and 327 nM and 390 nM and 398 nM
same,EC50,"[3]; read-out: Mean half-maximum effective concentration (EC50), azi-ECL2 sensor, orthosteric agonist alone",900 nM
same,Mean max response (normalized max ΔFRET),"[4]; SNAP-m2 (VFT), agonist alone (1 mM glutamate, 100 μM DCG-IV, 20 μM LY379268, 100 μM APDC), normalized to 1 mM glutamate",0.79
same,Normalized Max ΔFRET,"[4]; SNAP-m2, 100μM agonist, individual cells, normalized to 1mM glutamate",84.7663 and 70.8926 and 74.3888 and 73.8095 and 75.8105 and 75.3951 and 75.9881 and 74.211 and 74.4971 and 73.9262 and 75.3591 and 85.075 and 75.8448 and 76.6206 and 81.7136 and 78.0427 and 77.2768 and 74.1653 and 84.8254 and 80.7786 and 86.2145 and 83.3004 and 84.7137 and 86.1165 and 84.7264
same,"Normalized Max ΔFRET, Mean","[4]; SNAP-m2, 100μM agonist, mean of cells, normalized to 1mM glutamate",78.7384
same,Hill slope,"[4]; SNAP-m2 sensor, orthosteric agonist alone",–1.26
same,Live-cell FRET max response normalized to 1mM glutamate,"[4]; SNAP-m2 sensor, DCG-IV, individual values (N=25)",0.8621 and 0.833 and 0.8471 and 0.8612 and 0.8473 and 0.7089 and 0.7439 and 0.7381 and 0.7581 and 0.754 and 0.7599 and 0.7421 and 0.745 and 0.7393 and 0.7536 and 0.7584 and 0.7662 and 0.8171 and 0.7804 and 0.7728 and 0.7417 and 0.8477 and 0.8508 and 0.8482 and 0.8078
same,efficacy relative to glutamate efficacy,[4]; VFT domain FRET sensor,79%
same,"Normalized FRET response, Mean (SNAP-m2 agonist DRC)",[4]; log[ligand] (M) -4,-0.7874
same,"Normalized FRET response, Mean (SNAP-m2 agonist DRC)",[4]; log[ligand] (M) -4.52288,-0.8342
same,"Normalized FRET response, Mean (SNAP-m2 agonist DRC)",[4]; log[ligand] (M) -5,-0.8388
same,"Normalized FRET response, Mean (SNAP-m2 agonist DRC)",[4]; log[ligand] (M) -5.39794,-0.8023
same,"Normalized FRET response, Mean (SNAP-m2 agonist DRC)",[4]; log[ligand] (M) -5.82391,-0.7016
same,"Normalized FRET response, Mean (SNAP-m2 agonist DRC)",[4]; log[ligand] (M) -6.09691,-0.5309
same,"Normalized FRET response, Mean (SNAP-m2 agonist DRC)",[4]; log[ligand] (M) -6.52288,-0.3457
same,"Normalized FRET response, Mean (SNAP-m2 agonist DRC)",[4]; log[ligand] (M) -7,-0.1181
same,"Normalized FRET response, Mean (SNAP-m2 agonist DRC)",[4]; log[ligand] (M) -7.30103,-0.04846
same,"Normalized FRET response, Mean (SNAP-m2 agonist DRC)",[4]; log[ligand] (M) -7.69897,0
same,EC50,"[4]; read-out: Live-cell FRET titration EC50, SNAP-m2, agonist alone, individual experiments",601 nM and 624 nM and 283 nM and 314 nM and 294 nM and 323 nM
same,EC50,"[4]; read-out: Mean half-maximum effective concentration (EC50), SNAP-m2 sensor, orthosteric agonist alone",400 nM

# Source: paper PMC9299836 (eLife, 2022)
